{"source": "ChEMBL document CHEMBL3611975", "about": "“New carbocyclic N(6)-substituted adenine and pyrimidine nucleoside analogues with a bicyclo[2.2.1]heptane fragment as sugar moiety; synthesis, antiviral, anticancer activity and X-ray crystallography” (Bioorg Med Chem, 2015)", "key": {"[1]": {"assay": "Cytotoxicity against MDCK cells assessed as cell viability after 48 hrs by MTT assay", "assay_type": "cell-based, Canis lupus familiaris", "settings": "dog, read-out: CTD50"}, "Coxsackievirus B4": {"test_system": "Coxsackievirus B4", "assay": "Antiviral activity against Human coxsackievirus B4 Powers infected in African green monkey Vero cells assessed as decrease in virus titer after 72 hrs by MTT assay", "assay_type": "functional, organism-based", "settings": "Enterovirus B"}, "[2]": {"assay": "Selectivity index, ratio of CTD50 for African green monkey Vero cells to EC50 for Human coxsackievirus B4 Powers", "assay_type": "toxicity, cell-based"}, "PC-3": {"test_system": "PC-3", "assay": "Cytotoxicity against human PC3 cells assessed as growth at 10^-5 M relative to control"}, "[3]": {"assay": "Cytotoxicity against human EKVX cells assessed as growth at 10^-5 M relative to control"}, "U-251": {"test_system": "U-251", "assay": "Cytotoxicity against human U251 cells assessed as growth at 10^-5 M relative to control"}, "MCF7": {"test_system": "MCF7", "assay": "Cytotoxicity against human MCF7 cells assessed as growth at 10^-5 M relative to control"}, "HOP-92": {"test_system": "HOP-92", "assay": "Cytotoxicity against human HOP92 cells assessed as growth at 10^-5 M relative to control"}, "SF-295": {"test_system": "SF-295", "assay": "Cytotoxicity against human SF295 cells assessed as growth at 10^-5 M relative to control"}, "SF-539": {"test_system": "SF-539", "assay": "Cytotoxicity against human SF539 cells assessed as growth at 10^-5 M relative to control"}, "SNB-19": {"test_system": "SNB-19", "assay": "Cytotoxicity against human SNB19 cells assessed as growth at 10^-5 M relative to control"}, "DU-145": {"test_system": "DU-145", "assay": "Cytotoxicity against human DU145 cells assessed as growth at 10^-5 M relative to control"}, "BT-549": {"test_system": "BT-549", "assay": "Cytotoxicity against human BT549 cells assessed as growth at 10^-5 M relative to control"}, "HCT-116": {"test_system": "HCT-116", "assay": "Cytotoxicity against human HCT116 cells assessed as growth at 10^-5 M relative to control"}, "UACC-62": {"test_system": "UACC-62", "assay": "Cytotoxicity against human UACC62 cells assessed as growth at 10^-5 M relative to control"}, "RXF 393": {"test_system": "RXF 393", "assay": "Cytotoxicity against human RXF393 cells assessed as growth at 10^-5 M relative to control"}, "[4]": {"assay": "Cytotoxicity against human Hs578T cells assessed as growth at 10^-5 M relative to control", "settings": "Hs-578T"}, "COLO 205": {"test_system": "COLO 205", "assay": "Cytotoxicity against human COLO205 cells assessed as growth at 10^-5 M relative to control"}, "HCC 2998": {"test_system": "HCC 2998", "assay": "Cytotoxicity against human HCC2998 cells assessed as growth at 10^-5 M relative to control"}, "UACC-257": {"test_system": "UACC-257", "assay": "Cytotoxicity against human UACC257 cells assessed as growth at 10^-5 M relative to control"}, "NCI-H226": {"test_system": "NCI-H226", "assay": "Cytotoxicity against human NCI-H226 cells assessed as growth at 10^-5 M relative to control"}, "NCI-H460": {"test_system": "NCI-H460", "assay": "Cytotoxicity against human NCI-H460 cells assessed as growth at 10^-5 M relative to control"}, "NCI-H522": {"test_system": "NCI-H522", "assay": "Cytotoxicity against human NCI-H522 cells assessed as growth at 10^-5 M relative to control"}, "MDA-MB-231": {"test_system": "MDA-MB-231", "assay": "Cytotoxicity against human MDA-MB-231 cells assessed as growth at 10^-5 M relative to control"}}, "data": [{"smiles": "COc1ccc(CCNc2ncnc3c2ncn3[C@H]2C[C@H]3[C@H](CO)[C@@H]2C[C@@H]3Cl)cc1", "values": [{"measurement": "CC50 at 48 h", "setting": "[1]", "result": 350, "unit": "µM"}, {"measurement": "EC50", "setting": "Coxsackievirus B4", "result": "> 9", "unit": "µM"}, {"measurement": "selectivity ratio", "setting": "[2]", "result": 1}, {"measurement": "growth, % of control at 10 µM", "setting": "PC-3", "result": 102, "unit": "%"}, {"measurement": "growth, % of control at 10 µM", "setting": "[3]", "result": 100, "unit": "%"}, {"measurement": "growth, % of control at 10 µM", "setting": "U-251", "result": 105, "unit": "%"}, {"measurement": "growth, % of control at 10 µM", "setting": "MCF7", "result": 94.1, "unit": "%"}, {"measurement": "growth, % of control at 10 µM", "setting": "HOP-92", "result": 114, "unit": "%"}, {"measurement": "growth, % of control at 10 µM", "setting": "SF-295", "result": 104, "unit": "%"}, {"measurement": "growth, % of control at 10 µM", "setting": "SF-539", "result": 95.1, "unit": "%"}, {"measurement": "growth, % of control at 10 µM", "setting": "SNB-19", "result": 107, "unit": "%"}, {"measurement": "growth, % of control at 10 µM", "setting": "DU-145", "result": 105, "unit": "%"}, {"measurement": "growth, % of control at 10 µM", "setting": "BT-549", "result": 86.8, "unit": "%"}, {"measurement": "growth, % of control at 10 µM", "setting": "HCT-116", "result": 100, "unit": "%"}, {"measurement": "growth, % of control at 10 µM", "setting": "UACC-62", "result": 99.6, "unit": "%"}, {"measurement": "growth, % of control at 10 µM", "setting": "RXF 393", "result": 104, "unit": "%"}, {"measurement": "growth, % of control at 10 µM", "setting": "[4]", "result": 93.6, "unit": "%"}, {"measurement": "growth, % of control at 10 µM", "setting": "COLO 205", "result": 113, "unit": "%"}, {"measurement": "growth, % of control at 10 µM", "setting": "HCC 2998", "result": 97.2, "unit": "%"}, {"measurement": "growth, % of control at 10 µM", "setting": "UACC-257", "result": 99.4, "unit": "%"}, {"measurement": "growth, % of control at 10 µM", "setting": "NCI-H226", "result": 102, "unit": "%"}, {"measurement": "growth, % of control at 10 µM", "setting": "NCI-H460", "result": 106, "unit": "%"}, {"measurement": "growth, % of control at 10 µM", "setting": "NCI-H522", "result": 56.7, "unit": "%"}, {"measurement": "growth, % of control at 10 µM", "setting": "MDA-MB-231", "result": 100, "unit": "%"}]}, {"smiles": "CCOc1ncnc2c1ncn2[C@H]1C[C@H]2[C@H](CO)[C@@H]1C[C@@H]2Cl", "values": [{"measurement": "CC50 at 48 h", "setting": "[1]", "result": "> 1020", "unit": "µM"}, {"measurement": "EC50", "setting": "Coxsackievirus B4", "result": "> 102", "unit": "µM"}, {"measurement": "selectivity ratio", "setting": "[2]", "result": 2}, {"measurement": "growth, % of control at 10 µM", "setting": "PC-3", "result": 104, "unit": "%"}, {"measurement": "growth, % of control at 10 µM", "setting": "[3]", "result": 95.8, "unit": "%"}, {"measurement": "growth, % of control at 10 µM", "setting": "U-251", "result": 102, "unit": "%"}, {"measurement": "growth, % of control at 10 µM", "setting": "MCF7", "result": 95.2, "unit": "%"}, {"measurement": "growth, % of control at 10 µM", "setting": "HOP-92", "result": 124, "unit": "%"}, {"measurement": "growth, % of control at 10 µM", "setting": "SF-295", "result": 108, "unit": "%"}, {"measurement": "growth, % of control at 10 µM", "setting": "SF-539", "result": 102, "unit": "%"}, {"measurement": "growth, % of control at 10 µM", "setting": "SNB-19", "result": 115, "unit": "%"}, {"measurement": "growth, % of control at 10 µM", "setting": "DU-145", "result": 105, "unit": "%"}, {"measurement": "growth, % of control at 10 µM", "setting": "BT-549", "result": 106, "unit": "%"}, {"measurement": "growth, % of control at 10 µM", "setting": "HCT-116", "result": 105, "unit": "%"}, {"measurement": "growth, % of control at 10 µM", "setting": "UACC-62", "result": 104, "unit": "%"}, {"measurement": "growth, % of control at 10 µM", "setting": "RXF 393", "result": 106, "unit": "%"}, {"measurement": "growth, % of control at 10 µM", "setting": "[4]", "result": 108, "unit": "%"}, {"measurement": "growth, % of control at 10 µM", "setting": "COLO 205", "result": 119, "unit": "%"}, {"measurement": "growth, % of control at 10 µM", "setting": "HCC 2998", "result": 98.9, "unit": "%"}, {"measurement": "growth, % of control at 10 µM", "setting": "UACC-257", "result": 106, "unit": "%"}, {"measurement": "growth, % of control at 10 µM", "setting": "NCI-H226", "result": 94.5, "unit": "%"}, {"measurement": "growth, % of control at 10 µM", "setting": "NCI-H460", "result": 108, "unit": "%"}, {"measurement": "growth, % of control at 10 µM", "setting": "NCI-H522", "result": 92.4, "unit": "%"}, {"measurement": "growth, % of control at 10 µM", "setting": "MDA-MB-231", "result": 97.9, "unit": "%"}]}, {"smiles": "OC[C@H]1[C@@H]2C[C@H](n3cnc4c(NCCc5ccccc5)ncnc43)[C@H]1C[C@@H]2Cl", "values": [{"measurement": "CC50 at 48 h", "setting": "[1]", "result": 143, "unit": "µM"}, {"measurement": "EC50", "setting": "Coxsackievirus B4", "result": 4, "unit": "µM"}, {"measurement": "selectivity ratio", "setting": "[2]", "result": 3}, {"measurement": "growth, % of control at 10 µM", "setting": "PC-3", "result": 89.1, "unit": "%"}, {"measurement": "growth, % of control at 10 µM", "setting": "U-251", "result": 103, "unit": "%"}, {"measurement": "growth, % of control at 10 µM", "setting": "MCF7", "result": 89.9, "unit": "%"}, {"measurement": "growth, % of control at 10 µM", "setting": "HOP-92", "result": 92.4, "unit": "%"}, {"measurement": "growth, % of control at 10 µM", "setting": "SF-539", "result": 98.2, "unit": "%"}, {"measurement": "growth, % of control at 10 µM", "setting": "SNB-19", "result": 107, "unit": "%"}, {"measurement": "growth, % of control at 10 µM", "setting": "DU-145", "result": 98, "unit": "%"}, {"measurement": "growth, % of control at 10 µM", "setting": "BT-549", "result": 96.1, "unit": "%"}, {"measurement": "growth, % of control at 10 µM", "setting": "HCT-116", "result": 101, "unit": "%"}, {"measurement": "growth, % of control at 10 µM", "setting": "UACC-62", "result": 93.1, "unit": "%"}, {"measurement": "growth, % of control at 10 µM", "setting": "RXF 393", "result": 87, "unit": "%"}, {"measurement": "growth, % of control at 10 µM", "setting": "COLO 205", "result": 99.3, "unit": "%"}, {"measurement": "growth, % of control at 10 µM", "setting": "HCC 2998", "result": 89.8, "unit": "%"}, {"measurement": "growth, % of control at 10 µM", "setting": "UACC-257", "result": 103, "unit": "%"}, {"measurement": "growth, % of control at 10 µM", "setting": "NCI-H460", "result": 108, "unit": "%"}, {"measurement": "growth, % of control at 10 µM", "setting": "MDA-MB-231", "result": 104, "unit": "%"}]}]}
